The text below walks through data of patent US9790235B2, “MK2 inhibitors and uses thereof” (Celgene CAR LLC, priority 2014, dated 2017).

In assay [1] the target is T1, MK2 (Homo sapiens (Human), UniProt P49137). The conditions noted are these: percentage of modified protein after 60 minutes at room temperature, 10-fold excess of compound; MALDI (I-1 to I-50), magnetic bead MALDI (I-51 to I-129).
The target of assay [2] is T1, MK2. The assay is described as follows: MK2 cellular assay, total and phospho-Hsp27 (Serine 78) by MSD ELISA (Thp1). The format is cell-based. The conditions noted are these: Thp-1 cells, 1 hour compound, 50 ng/mL LPS 45 minutes, p-HSP27 (Ser78)/total HSP27; read-out: pHSP27 signaling EC50. As for the experimental part:
MK2 Cellular Assay—Detection of Total and Phospho-Hsp27 (Serine 78) by MSD ELISA (Thp1)
Compounds of the invention were assayed in Thp-1 human acute monocytic leukemia cells to measure inhibition of MK2 activity. Thp-1 cells were grown in culture medium containing RPMI/10% FBS (fetal bovine serum)/0.05 mM 2-mercaptoethanol. 72 hours prior to the assay, 8×10^4 cells per well were plated in a 96 well flat bottom plate along with 10 ng/mL phorbol 12-myristate 13-acetate (PMA). Cells were cultured in an incubator at 37° C. until needed for the assay. Cell plate media was replaced with culture media just prior to assay while compound dilutions were being made.
Stock solutions of test compound, 1 mM in DMSO, were prepared. 0.9 μl of test compound was added to 300 μl cell media for a starting concentration of 3000 nM. […] Cell plate media was discarded, followed by addition of 100 μl of the compound containing media. The resulting preparation was incubated at 37° C. for 1 hour.
Test compound-containing cell assay media was removed and the cells were washed once with cell assay media. Cell assay media containing 50 ng/mL LPS (lipopolysaccharide) was added to the each well and incubated for 45 minutes. Following LPS incubation, the cells were washed once with PBS (phosphate-buffered saline) and lysed with 60 μl Cell Extraction Buffer (Invitrogen #FNN0011) plus protease and phosphatase inhibitors. The plate was then stored at −80° C. until further analysis.
The MULTI-SPOT Phospho(Ser78)/Total HSP27 ELISA Assay kit was purchased from Meso Scale […] (MSD; catalog #K15128D). […] The pre-coated MSD plate was blocked with 150 μL/well of 3% BSA in MSD wash buffer. The preparation was placed on a shaker at room temperature for an hour. While the ELISA plate was blocked, the cell assay plate stored at −80° C. was placed on a shaker at 4° C. for 1 hour to thaw.
The blocked MSD plate was washed on a plate washer, tapping out the last bit of wash solution, followed by addition of 30 μl of the lysate from the cell assay plate. The preparation was covered and incubated for 1 hour at room temperature. The lysate was removed, the plate was washed 3 times on a plate washer and the last bit of wash buffer was tapped out and replaced with 25 μl/well detection antibody (anti-total HSP27 conjugated with an electrochemiluminescent compound, MSD SULFO-TAG label, supplied in kit) made in 1% BSA/MSD wash buffer. The plate was incubated for 1 hour at room temperature on a shaker, followed by 3 washes. The last bit of wash buffer was tapped out. 150 μl/well 1×MSD read buffer was added (4× read buffer supplied with kit) and the plate was analyzed on the MSD SECTOR® Imager for analysis. The SECTOR® Imager measures intensity of emitted light to provide a quantitative measure of phosphorylated HSP27 (Ser78) and total HSP27 present in the sample. The relative percent phosphoprotein in a sample is calculated by dividing the Phospho-HSP27 signal intensity over the total HSP27 signal intensity measured in each well.

The target of assay [3] is p38α activated, mitogen-activated protein kinase-activated protein kinase 2 (MAPKAP-K2 or MK2) enzyme (Homo sapiens (Human), UniProt P49137). The assay is described as follows: MK2 Omnia continuous-read kinase assay for compound potency. Type of assay: biochemical. The note with it: [MK-2]=0.4 nM, [ATP]=10 μM, [ST3-Sox]=10 μM; read-out: MK2 IC50. The source says: Mitogen-Activated Protein Kinase-Activated Protein Kinase 2 Omnia® Assay for Compound Potency Assessment:
The protocol below describes a continuous-read kinase assay optimized to measure potency of compounds against p38α activated, mitogen-activated protein kinase-activated protein kinase 2 (MAPKAP-K2 or MK2) enzyme. Further details of this assay are described by Life Technologies, Carlsbad, Calif. on their website at the following URL: http://tools.lifetechnologies.com/content/sfs/manuals/omnia_kinase_assay_man.pdf.
[Reagent] used: • [MK-2]=0.4 nM, • [ATP]=10 μM and • [ST3-Sox]=10 μM (ATP^appKM=10 μM)
Kinase reactions were started with the addition of 45 μL of the ATP-peptide substrate S/T3-Sox mix and monitored every 71 seconds for 120 minutes at λex360/λem485 in a Synergy H4 plate reader from BioTek (Winooski, Vt.) at room temperature.
Background signals from the no enzyme control wells were subtracted from all progress curves. The initial linear portions of the net progress curves were fit according to a linear equation to yield the slope and percentage of inhibition (% inhibition) at each compound concentration. The net progress curves obtained during the first two hours of reactions were also fit according to an ascending single-exponential equation (Eq. 1) to yield kobs values at each compound concentration. Plots of % Inhibition versus inhibitor concentrations were fit according to a dose-response equation (Eq. 2) to generate IC50 and Hill slope values while plots of kobs versus inhibitor concentration were fit according to Equation 3 (Eq. 3) to generate apparent kinact/KI values using the GraphPad PRISM software (Version 6.00; GraphPad San Diego, Calif.).
[formula] where F is the fluorescence intensity from the plate reader, V0 is a constant reflecting the relationship between the instrument readout and product concentration, t is time, e is Euler's number, and kobs is the observed inactivation rate constant.
[formula] where % Inhibition is percentage of inhibition, IC50 is half maximal inhibitory concentration, [I] is the inhibitor concentration, and n is the Hill slope.

Bounds are passed on as bounds.
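Throughout, for Mass Modification: covalent binding read from centroid mass shift of compound-treated versus untreated intact MK2, shift divided by compound molecular weight, giving fraction of total protein bound.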

T1 sequence (P49137 whole entry): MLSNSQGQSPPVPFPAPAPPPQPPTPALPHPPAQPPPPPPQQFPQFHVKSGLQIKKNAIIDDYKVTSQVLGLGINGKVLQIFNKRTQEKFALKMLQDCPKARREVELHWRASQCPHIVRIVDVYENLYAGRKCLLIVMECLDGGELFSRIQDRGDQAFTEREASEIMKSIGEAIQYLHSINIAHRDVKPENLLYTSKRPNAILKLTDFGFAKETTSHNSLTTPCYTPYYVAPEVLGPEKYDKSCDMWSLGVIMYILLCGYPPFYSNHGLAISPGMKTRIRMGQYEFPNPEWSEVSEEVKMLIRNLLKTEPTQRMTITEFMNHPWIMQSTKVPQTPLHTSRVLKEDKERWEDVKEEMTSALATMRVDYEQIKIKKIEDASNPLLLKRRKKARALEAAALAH
Sequence of p38α activated, mitogen-activated protein kinase-activated protein kinase 2 (MAPKAP-K2 or MK2) enzyme (P49137 whole entry): as above

Broadly, the EC50 is the concentration giving half of the maximal effect. One may read the IC50 as the midpoint of a concentration-inhibition curve. Turning to `C[C@@H]1CNc2c(sc3ccc4nc(Nc5cc(Cl)ncc5C(N)=O)ccc4c23)C(=O)N1` [I-15, (R)-6-chloro-4-((10-methyl-8-oxo-9,10,11,12-tetrahydro-8H-[1,4]diazepino[5′,6′:4,5]thieno[3,2-f]quinolin-3-yl)amino)nicotinamide], in assay [1], the “Mass Modification” value is on record as “G (mass modification ≦30%)”. Besides, the EC50 in assay [2] was above 1000 nM. In assay [3], the IC50 is below 100 nM.
Taken in the same sequence, the figures for `C[C@@H]1CNc2c(sc3ccc4nc(Oc5cnnc(Cl)c5)ccc4c23)C(=O)N1` [I-79, (R)-3-((6-chloropyridazin-4-yl)oxy)-10-methyl-9,10,11,12-tetrahydro-8H-[1,4]diazepino[5′,6′:4,5]thieno[3,2-f]quinolin-8-one] were “E (mass modification of ≧70%)”, 101 to 500 nM and below 100 nM.
The corresponding values for `COCCOc1nc(Cl)cc(Nc2ccc3c(ccc4sc5c(c43)NC[C@@H](C)NC5=O)n2)n1` [I-67, (R)-3-((6-chloro-2-(2-methoxyethoxy)pyrimidin-4-yl)amino)-10-methyl-9,10,11,12-tetrahydro-8H-[1,4]diazepino[5′,6′:4,5]thieno[3,2-f]quinolin-8-one] are “F (mass modification of 31-69%)”, 101 to 500 nM and below 100 nM.
The corresponding values for `C[C@@H]1CNc2c(sc3ccc4nc(Nc5nc(Cl)nc(N6CCN(C)CC6)n5)ccc4c23)C(=O)N1` [I-10, (R)-3-((4-chloro-6-(4-methylpiperazin-1-yl)-1,3,5-triazin-2-yl)amino)-10-methyl-9,10,11,12-tetrahydro-8H-[1,4]diazepino[5′,6′:4,5]thieno[3,2-f]quinolin-8-one] are “G (mass modification ≦30%)”, 101 to 500 nM and below 100 nM.
Regarding `C[C@@H]1CNc2c(sc3ccc4nc(Oc5nc(Cl)nc6c5COC6)ccc4c23)C(=O)N1` [I-86, (R)-3-((2-chloro-5,7-dihydrofuro[3,4-d]pyrimidin-4-yl)oxy)-10-methyl-9,10,11,12-tetrahydro-8H-[1,4]diazepino[5′,6′:4,5]thieno[3,2-f]quinolin-8-one], the “Mass Modification” value in assay [1] was “E (mass modification of ≧70%)”. Besides, in assay [2], the EC50 is below 100 nM. For the same compound, the IC50 in assay [3] was below 100 nM.
With `C[C@@H]1CNc2c(sc3ccc4nc(Nc5nc(Cl)ncc5C(N)=O)ccc4c23)C(=O)N1` [I-9, (R)-2-chloro-4-((10-methyl-8-oxo-9,10,11,12-tetrahydro-8H-[1,4]diazepino[5′,6′:4,5]thieno[3,2-f]quinolin-3-yl)amino)pyrimidine-5-carboxamide], in assay [1], the “Mass Modification” value is given as “E (mass modification of ≧70%)”. The EC50 in assay [2] is below 100 nM. For the same compound, the half-maximal inhibitory concentration (IC50) in assay [3] is below 100 nM.
On to `CO[C@@H]1CCCN(Cc2cnc(Cl)nc2Oc2ccc3c(ccc4sc5c(c43)NC[C@@H](C)NC5=O)n2)C1` [I-107, (R)-3-((2-chloro-5-(((R)-3-methoxypiperidin-1-yl)methyl)pyrimidin-4-yl)oxy)-10-methyl-9,10,11,12-tetrahydro-H-[1,4]diazepino[5′,6′:4,5]thieno[3,2-f]quinolin-8-one], for which the “Mass Modification” value in assay [1] is “E (mass modification of ≧70%)”. Also, the EC50 in assay [2] is below 100 nM. Besides, the IC50 in assay [3] fell in the range of 101 to 500 nM.
The corresponding values for `C[C@@H]1CNc2c(sc3ccc4nc(Nc5ccnc(S(C)(=O)=O)n5)ccc4c23)C(=O)N1` [I-14, (R)-10-methyl-3-((2-(methylsulfonyl)pyrimidin-4-yl)amino)-9,10,11,12-tetrahydro-8H-[1,4]diazepino[5′,6′:4,5]thieno[3,2-f]quinolin-8-one] are “G (mass modification ≦30%)”, above 1000 nM and below 100 nM.
Consider `C[C@@H]1CNc2c(sc3ccc4nc(Oc5ncncc5CN(C)C(C)(C)C)ccc4c23)C(=O)N1` [I-104, (R)-3-((5-((tert-butyl(methyl)amino)methyl)pyrimidin-4-yl)oxy)-10-methyl-9,10,11,12-tetrahydro-8H-[1,4]diazepino[5′,6′:4,5]thieno[3,2-f]quinolin-8-one], for which the EC50 in assay [2] is above 1000 nM. Further, in assay [3], the IC50 was in the range of 501 to 999 nM.
